Measurements reported in patent US9801960B2, “Probe for a biological specimen and labelling method and screening method using the probe” (CANON KABUSHIKI KAISHA, priority 2008, dated 2017).

What was measured:
[1] = Storage stability of staining compound solution in DMSO; assay type: physicochemical; details: 10 ng/mL in DMSO, closed glass container, normal temperature, 1 month; rate of change of absorbance and fluorescence intensity
Experimental: A 10 ng/mL solution of each of the staining compounds of Labelled Examples 1 to 78 and Labelled Comparative Examples 1 and 2 in DMSO was prepared, charged into a well-closed container made of glass, and left to stand still at normal temperature for 1 month. The absorbance and the fluorescence intensity at the time of the start of a storage stability test were measured at a given wavelength, and their rates of change were examined (+++: rates of change of the absorbance and the fluorescence intensity are less than 5%, and thus, the storage stability is highly excellent; ++: rates of change of the absorbance and fluorescence intensity are 5 to 15%, and thus, the storage stability is excellent; and −: rates of change of the absorbance and fluorescence intensity are more than 15%, and thus, the storage stability is poor).

Zebrafish juveniles = assay: In vivo labelling of Zebrafish juveniles with probe for biological specimen; design: key to Staining property: +++: stained; −: no stained; key to Fluorescence sensitivity: +++: strongly observed; ++: moderately observed; +: weakly observed; −: no stained; details: 1 hour; for Fluorescence sensitivity / Staining property: 10 ng/mL; for Fluorescence sensitivity: fluorescence intensity visually evaluated; for Staining property: visually evaluated; for Site(s) to be labelled: 10 ng/mL in water, stereoscopic microscope
Experimental: Five juveniles of Zebrafish were put into one well of a well plate together with rearing water. After rearing water had been discharged, 1 mL of distilled water was added to the well, and a solution of a staining compound (1) in DMSO was further added thereto so as to achieve a concentration of 10 ng/mL, followed by gentle stirring (pipetting). Further, Egg Water was prepared by dissolving artificial seawater SEALIFE (manufactured by Marinetech Co., Ltd.) in distilled water at a concentration of 60 mg/L. After the whole had been left to stand for 1 hour, distilled water in the well was discharged and replaced by 1 mL of fresh Egg Water. In addition, such an operation that Egg Water was discharged and replaced by 1 mL of fresh Egg Water was repeated twice. One of the juveniles was taken out from the well onto a dish, supplemented with 100 μL of a 3% methylcellulose aqueous solution to fix the movement of the juvenile, and photographed with a stereoscopic microscope (MZ10F: manufactured by Leica Microsystems K.K.).
The same operation as that in Example 1 was performed except that the staining compound (1) used in Example 1 was changed to any one of the staining compounds described in Table 1.
The same operation as that in Example 1 was performed except that the staining compound (1) used in Example 1 was changed to any one of indocyanine green (ICG) and fluorescein.
The staining property of each of the staining compounds of Labelled Examples 1 to 78 and Labelled Comparative Examples 1 and 2 was visually evaluated (+++: stained and −: no stained).
The fluorescence intensity of each of the staining compounds of Labelled Examples 1 to 78 and Labelled Comparative Examples 1 and 2 was visually evaluated (+++: strongly observed, ++: moderately observed, +: weakly observed, and −: no stained).

[2] = Excitation and fluorescence emission wavelength measurement; assay type: physicochemical; design: Stokes shift (λem − λex): unit not given here; details: aqueous solution: 10 mg/mL solution in DMSO diluted 500-fold with purified water
Experimental: It should be noted that the excitation wavelength and the fluorescence emission wavelength of the staining compound were determined by measuring an aqueous solution, which had been obtained by diluting 500-fold a 10 mg/mL solution of the staining compound in DMSO with purified water, with a fluorescence spectrophotometer FL 4500 manufactured by Hitachi High-Technologies Corporation.

Row | Excitation wavelength λex [2] [nm] | Fluorescence emission wavelength λem [2] [nm] | Stokes shift (λem − λex) [2] | Structure (SMILES) | Storage stability [1] | Fluorescence sensitivity (Zebrafish juveniles) | Staining property (Zebrafish juveniles) | Site(s) to be labelled (Zebrafish juveniles)
1 | 502 | 644 | 142 | CCN1C(=O)/C(=c2\s/c(=C/c3ccc4c(c3)C3CCCC3N4c3ccccc3)c(=O)n2CC(=O)O)SC1=S (stereo not shown) [Dye 30] | +++ (rates of change of the absorbance and the fluorescence intensity are less than 5%, and thus, the storage stability is highly excellent) | +++ | +++ | 
2 | 560 | 677 | 117 | COc1ccc(N2c3ccc(/C=C/c4sc5ccccc5[n+]4CC(=O)O)cc3C3CCCC32)cc1 (stereo not shown) [Dye 31] | +++ (rates of change of the absorbance and the fluorescence intensity are less than 5%, and thus, the storage stability is highly excellent) | +++ | +++ | nose
3 | 570 | 657 | 87 | COc1cc(/C=C2\C(=O)ON=C2c2ccccc2)cc2c1N(c1ccccc1)C1CCCC21 (stereo not shown) [Dye 34] | +++ (rates of change of the absorbance and the fluorescence intensity are less than 5%, and thus, the storage stability is highly excellent) | +++ | +++ | nose
4 | 611 | 720 | 109 | CC1(C)C(/C=C/c2ccc3c(c2)C2CCCC2N3c2ccc(C=C(c3ccccc3)c3ccccc3)cc2)=[N+](CCC(=O)O)c2ccccc21 (stereo not shown) [Dye 35] | ++ (rates of change of the absorbance and fluorescence intensity are 5 to 15%, and thus, the storage stability is excellent) | +++ | +++ | nose
5 | 571 | 648 | 77 | COc1ccc(N2c3ccc(/C=C4/SC(=S)N(CC(=O)O)C4=O)cc3C3CCCC32)cc1 (stereo not shown) [Dye 37] | ++ (rates of change of the absorbance and fluorescence intensity are 5 to 15%, and thus, the storage stability is excellent) | +++ | +++ | gallbladder
6 | 582 | 679 | 97 | CCN1C(=O)/C(=c2\s/c(=C/c3ccc4c(c3)C3CCCC3N4c3ccc(OC)cc3)c(=O)n2CC(=O)O)SC1=S (stereo not shown) [Dye 38] | +++ (rates of change of the absorbance and the fluorescence intensity are less than 5%, and thus, the storage stability is highly excellent) | +++ | +++ | gastrointestinal tract
7 | 576 | 657 | 81 | CCN1C(=O)/C(=c2\s/c(=C/c3ccc4c(c3)C3CCCC3N4Cc3ccccc3)c(=O)n2CC(=O)O)SC1=S (stereo not shown) [Dye 40] | +++ (rates of change of the absorbance and the fluorescence intensity are less than 5%, and thus, the storage stability is highly excellent) | +++ | +++ | blood vessel, liver, and gastrointestinal tract
8 | 563 | 618 | 55 | O=C(O)C1=NN(c2ccccc2)C(=O)/C1=C\c1cc(Br)c2c(c1)C1CCCC1N2c1ccc(Br)cc1 (stereo not shown) [Dye 42] | ++ (rates of change of the absorbance and fluorescence intensity are 5 to 15%, and thus, the storage stability is excellent) | +++ | +++ | skin surface, liver, and gastrointestinal tract
9 | 569 | 649 | 80 | COc1ccc2cc(N3c4ccc(/C=C5\C(=O)N(c6ccc(C(=O)O)cc6)N=C5C)cc4C4CCCC43)ccc2c1 (stereo not shown) [Dye 43] | +++ (rates of change of the absorbance and the fluorescence intensity are less than 5%, and thus, the storage stability is highly excellent) | +++ | +++ | 
10 | 510 | 558 | 48 | CC1=NN(c2ccc(C(=O)O)cc2)C(=O)/C1=C\c1ccc2c(c1)C1CCCC1N2Cc1ccccc1 (stereo not shown) [Dye 44] | ++ (rates of change of the absorbance and fluorescence intensity are 5 to 15%, and thus, the storage stability is excellent) | +++ | +++ | liver and gastrointestinal tract
11 | 401 | 516 | 115 | COc1ccc2cc(N3c4ccc(/C=C/c5sc6ccccc6[n+]5CC(=O)O)cc4C4CCCC43)ccc2c1 (stereo not shown) [Dye 45] | +++ (rates of change of the absorbance and the fluorescence intensity are less than 5%, and thus, the storage stability is highly excellent) | +++ | +++ | nose
12 | 481 | 586 | 105 | O=C(O)C1=NN(c2ccccc2)C(=O)/C1=C\c1ccc2c(c1)C1CCCC1N2c1ccc(Cc2ccccc2)cc1 (stereo not shown) [Dye 50] | ++ (rates of change of the absorbance and fluorescence intensity are 5 to 15%, and thus, the storage stability is excellent) | +++ | +++ | 
13 | 582 | 670 | 88 | O=C(O)C1=NN(c2ccccc2)C(=O)/C1=C\c1ccc2c(c1)C1CCCC1N2c1ccc(C=C(c2ccccc2)c2ccccc2)cc1 (stereo not shown) [Dye 51] | ++ (rates of change of the absorbance and fluorescence intensity are 5 to 15%, and thus, the storage stability is excellent) | + | +++ | gallbladder and gastrointestinal tract
14 | 610 | 633 | 23 | COc1ccc(N2c3ccc(/C=C4\C(=O)N(c5ccc(C(=O)O)cc5)N=C4C)cc3C3CCCC32)cc1 (stereo not shown) [Dye 54] | +++ (rates of change of the absorbance and the fluorescence intensity are less than 5%, and thus, the storage stability is highly excellent) | ++ | +++ | gastrointestinal tract and nose
15 | 437 | 585 | 148 | COc1ccc(N2c3ccc(/C=C(\C#N)C(=O)O)cc3C3CCCC32)cc1 (stereo not shown) [Dye 56] | +++ (rates of change of the absorbance and the fluorescence intensity are less than 5%, and thus, the storage stability is highly excellent) | +++ | +++ | liver, gallbladder, and gastrointestinal tract
16 | 559 | 671 | 112 | CCN1C(=O)/C(=c2\s/c(=C/c3cc(Br)c4c(c3)C3CCCC3N4c3ccc(Br)cc3)c(=O)n2CC(=O)O)SC1=S (stereo not shown) [Dye 59] | +++ (rates of change of the absorbance and the fluorescence intensity are less than 5%, and thus, the storage stability is highly excellent) | +++ | +++ | blood vessel, nose, and gastrointestinal tract
